The text below walks through data of patent US20230405002A1, “COMBINATIONS OF DIACYLGLYCEROL ACYLTRANSFERASE 2 INHIBITORS AND ACETYL-COA CARBOXYLASE INHIBITOR” (Pfizer Inc., priority 2020, published 2023).

The target in one data set is human DGAT2 (hDGAT2) (Homo sapiens (Human), UniProt Q96PD7). Kind of data set: In vitro DGAT2 assay, determination of IC50 values. Particulars: geometric mean; hDGAT2 membrane fraction. Format: biochemical.
Data set [1] can be described thus: Determination of pKa (capillary electrophoresis). Conditions: most basic pKa, mean.
In a further data set the test system is human liver microsomes. As to the kind of experiment: Intrinsic clearance in human liver microsomes. Particulars: human liver microsome assay, 1 μM.
The next data set relates to human hepatocytes. Kind of data set: High throughput intrinsic clearance in human hepatocytes. Conditions: high throughput human hepatocyte assay, 1 μM.
For data set [2], the target named is DGAT2 in human hepatocytes (Homo sapiens (Human), UniProt Q96PD7). Kind of data set: Determination of IC50 values for DGAT2 inhibitors in human hepatocytes. Format: cell-based. Particulars: geometric mean; cryopreserved human hepatocytes, DGAT1 inhibitor 3 μM present. On the procedure:
For evaluation of the effects of DGAT2 inhibitors in a cell-based setting, cryopreserved human hepatocytes (Lot DOO, Celsis, Baltimore, MD) were thawed and plated onto type I collagen-coated plates according to the manufacturer's instructions. After 18 hours overnight recovery period, the cells were overlayed with media containing 250 μg/mL Geltrex Basement Membrane Matrix (Thermo Fisher). The following day, media was aspirated and replaced with serum-free Williams Media E (Thermo Fisher) containing 400 μM sodium dodecanoate (Sigma-Aldrich, St. Louis, MO) and 2 mM GlutaMAX (Thermo Fisher). […] DGAT2 inhibitors were then added to the desired final concentration. After a 15 minute preincubation, 0.2 μCi [^14C(U)]-glycerol (Perkin Elmer) was added to each well followed by a 3 hour incubation. At this point the media was removed, and the cells lysed via orbital shaking in isopropyl alcohol: tetrahydrofuran (9:1) for 15 minutes prior to centrifugation at 3000 rpm for 10 minutes. Radiolabeled lipids were resolved using a solvent system by thin layer chromatography with the solvent consisting of hexanes: diethyl ether: glacial acetic acid (75:23:2, v/v/v). After separation, radiolabeled lipids were visualized using the Typhoon 9500 phosphorimaging system (GE). The half maximal inhibitory concentrations (IC50 values) were determined by nonlinear regression analysis of the % inhibition dose response curve using GraphPad Prism (GraphPad Software, Inc., La Jolla, CA).
Table 12 below provides the IC50 values of selected Examples for inhibition of DGAT2 in human hepatocytes in accordance with the above-described assay. Results are reported as geometric mean IC50 values, with the number of replicates (n) shown.

pIC50: −log10 of the molar value. Counter-ions that a name gives are not always drawn.

Sequence of DGAT2 in human hepatocytes (Q96PD7 whole entry): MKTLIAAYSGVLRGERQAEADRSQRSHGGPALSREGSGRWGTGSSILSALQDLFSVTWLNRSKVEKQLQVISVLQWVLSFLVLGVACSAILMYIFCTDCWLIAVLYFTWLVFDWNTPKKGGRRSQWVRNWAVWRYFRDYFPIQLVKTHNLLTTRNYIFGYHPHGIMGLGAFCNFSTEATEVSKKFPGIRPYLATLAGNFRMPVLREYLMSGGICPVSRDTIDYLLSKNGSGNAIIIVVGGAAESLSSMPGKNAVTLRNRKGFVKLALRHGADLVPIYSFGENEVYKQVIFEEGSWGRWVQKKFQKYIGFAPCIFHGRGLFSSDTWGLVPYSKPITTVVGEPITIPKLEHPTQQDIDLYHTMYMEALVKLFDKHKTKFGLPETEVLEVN
Sequence of human DGAT2 (hDGAT2) (Q96PD7 whole entry): as above
Method for human liver microsomes: The high throughput human microsomal stability assay was performed in a 384-well format (Di, L., et al. 2012, Eur. J. Med. Chem., 57, 441-448). All liquid handling and incubation were conducted with a Biomek FX (Beckman Coulter, Inc., Indianapolis, IN), equipped with one 3-position Mecour heated deck positions. Pooled human liver microsomes of 50 donors (Lot: HLM-103) were purchased from BD Biosciences (Bedford, MA). Each incubation contained test compound (1 μM), human liver microsomes (0.25 μM CYP protein equivalent to 0.806 mg/mL protein concentration), NADPH 20.9 mM, MgCl2 (3.3 mM) and potassium phosphate buffer (100 mM at pH 7.4). The final reaction volume was 45 μL containing 0.1% DMSO. The incubations were conducted at 37° C. At various time points (e.g. 1, 4, 7, 12, 20, 25, 45 and 60 min), cold acetonitrile with mass spectrometry (MS) internal standard (Example 39A, WO1999/57125) was added to quench the reaction. The plates were centrifuged at 3000 rpm for 1 min at 4° C. […] The plates were sealed and subsequently analyzed using LC-MS/MS. Control plates were prepared in the same manner without adding the NADPH cofactor to monitor any non-CYP/FMO catalyzed decline. […] The data are presented as the mean+/− standard deviation, with the number of replicates (n) shown.

`CCOc1cccnc1Oc1cncc(-c2ncc(C(=O)NC3CCCNC3C)cn2)c1` (mixture of isomers) [Example 23, 2-{5-[(3-ethoxypyridin-2-yl)oxy]pyridin-3-yl}-N-(2-methylpiperidin-3-yl)pyrimidine-5-carboxamide, trifluoroacetate salt, mixture of stereoisomers] had a pIC50 on human DGAT2 (hDGAT2) of 4.85.

On to `CCOc1cccnc1Oc1cncc(-c2ncc(C(=O)N[C@H]3CC[C@H](C(F)(F)F)NC3)cn2)c1` (racemic) [Example 8, rac-2-{5-[(3-ethoxypyridin-2-yl)oxy]pyridin-3-yl}-N-[(3R,6S)-6-(trifluoromethyl)piperidin-3-yl]pyrimidine-5-carboxamide or rac-2-{5-[(3-ethoxypyridin-2-yl)oxy]pyridin-3-yl}-N-[(3R,6R)-6-(trifluoromethyl)piperidin-3-yl]pyrimidine-5-carboxamide], for which the “Basic pKa” value in data set [1] worked out at 5.3.

`CCOc1cccnc1Oc1cncc(-c2ncc(C(=O)N[C@H]3CC[C@H](C(F)(F)F)NC3)cn2)c1` (racemic) [Example 9, rac-2-{5-[(3-ethoxypyridin-2-yl)oxy]pyridin-3-yl}-N-[(3R,6S)-6-(trifluoromethyl)piperidin-3-yl]pyrimidine-5-carboxamide or rac-2-{5-[(3-ethoxypyridin-2-yl)oxy]pyridin-3-yl}-N-[(3R,6R)-6-(trifluoromethyl)piperidin-3-yl]pyrimidine-5-carboxamide]: the “CLint (+/− STD Dev)” value with human liver microsomes was more than 290 µL/min/mg.

As for `CCOc1cccnc1Oc1cncc(-c2ncc(C(=O)N[C@H]3CNCC[C@H]3C)cn2)c1` (racemic) [Example 20, rac-2-{5-[(3-ethoxypyridin-2-yl)oxy]pyridin-3-yl}-N-[(3R,4R)-4-methylpiperidin-3-yl]pyrimidine-5-carboxamide, trifluoroacetate salt], at human DGAT2 (hDGAT2), the pIC50 is 5.68.

`CCOc1cccnc1Oc1cncc(-c2ncc(C(=O)N[C@H]3CNCCC3(F)F)cn2)c1` (single isomer, unassigned) [Example 15, N-[(3S)-4,4-difluoropiperidin-3-yl]-2-{5-[(3-ethoxypyridin-2-yl)oxy]pyridin-3-yl}pyrimidine-5-carboxamide, trifluoroacetate salt or N-[(3R)-4,4-difluoropiperidin-3-yl]-2-{5-[(3-ethoxypyridin-2-yl)oxy]pyridin-3-yl}pyrimidine-5-carboxamide, trifluoroacetate salt]: the pIC50 against human DGAT2 (hDGAT2) is 5.48.

On to `CCOc1cccnc1Oc1cncc(-c2ncc(C(=O)N[C@H]3CNCCC3(F)F)cn2)c1` (single isomer, unassigned) [Example 16, N-[(3S)-4,4-difluoropiperidin-3-yl]-2-{5-[(3-ethoxypyridin-2-yl)oxy]pyridin-3-yl}pyrimidine-5-carboxamide, trifluoroacetate salt or N-[(3R)-4,4-difluoropiperidin-3-yl]-2-{5-[(3-ethoxypyridin-2-yl)oxy]pyridin-3-yl}pyrimidine-5-carboxamide, trifluoroacetate salt], for which the “CLint (+/− Std Dev)” value with human hepatocytes (trifluoroacetate salt) is given as 4.7 +/− 1.4 μL/min/10^6 cells. Besides, the “CLint (+/− STD Dev)” value in the data set with human liver microsomes (trifluoroacetate salt) is 17 µL/min/mg.

Take `CCOc1cccnc1Oc1cncc(-c2ncc(C(=O)N[C@@H]3CNCC(F)(F)C3)cn2)c1` (single isomer, unassigned) [Example 18, N-[(3S)-5,5-difluoropiperidin-3-yl]-2-{5-[(3-ethoxypyridin-2-yl)oxy]pyridin-3-yl}pyrimidine-5-carboxamide or N-[(3R)-5,5-difluoropiperidin-3-yl]-2-{5-[(3-ethoxypyridin-2-yl)oxy]pyridin-3-yl}pyrimidine-5-carboxamide]: the pIC50 in data set [2] was 7.70; against human DGAT2 (hDGAT2) it was 6.85.

Take `CCOc1cccnc1Oc1cncc(-c2ncc(C(=O)N[C@@H]3CNCC(F)(F)C3)cn2)c1` (single isomer, unassigned) [Example 19, N-[(3S)-5,5-difluoropiperidin-3-yl]-2-{5-[(3-ethoxypyridin-2-yl)oxy]pyridin-3-yl}pyrimidine-5-carboxamide or N-[(3R)-5,5-difluoropiperidin-3-yl]-2-{5-[(3-ethoxypyridin-2-yl)oxy]pyridin-3-yl}pyrimidine-5-carboxamide]: the “CLint (+/− Std Dev)” value in the data set with human hepatocytes is recorded as 14 +/− 1.4 μL/min/10^6 cells. The “CLint (+/− STD Dev)” value in the data set on human liver microsomes turned out to be 34 ± 1.9 µL/min/mg. Moreover, the “Basic pKa” value in data set [1] stood at 5.2. Besides, on human DGAT2 (hDGAT2), the pIC50 is 6.62.

Regarding `CCOc1cccnc1Oc1cncc(-c2ncc(C(=O)NC3CCC(C(F)(F)F)NC3)cn2)c1` (single isomer, unassigned; ent-1) [Example 10, 2-{5-[(3-ethoxypyridin-2-yl)oxy]pyridin-3-yl}-N-[6-(trifluoromethyl)piperidin-3-yl]pyrimidine-5-carboxamide, trifluoroacetate salt, ENT-1], the “Basic pKa” value in data set [1] turned out to be 4.7. At human DGAT2 (hDGAT2), this compound showed a pIC50 of 7.41.

`CCOc1cccnc1Oc1cncc(-c2ncc(C(=O)NC3CCC(C(F)(F)F)NC3)cn2)c1` (single isomer, unassigned; ent-2) [Example 11, 2-{5-[(3-ethoxypyridin-2-yl)oxy]pyridin-3-yl}-N-[6-(trifluoromethyl)piperidin-3-yl]pyrimidine-5-carboxamide, trifluoroacetate salt, ENT-2]: the “CLint (+/− Std Dev)” value in the data set with human hepatocytes was 38 +/− 2.0 μL/min/10^6 cells. Further, in the data set with human liver microsomes, the “CLint (+/− STD Dev)” value is more than 290 µL/min/mg. On human DGAT2 (hDGAT2), the pIC50 is 8.36.

`CCOc1cc(F)cnc1Oc1cncc(-c2ncc(C(=O)N[C@@H]3CNCC[C@@H]3F)cn2)c1.O=C(O)C(F)(F)F.O=C(O)C(F)(F)F` [Example 1, 2-{5-[(3-Ethoxy-5-fluoropyridin-2-yl)oxy]pyridin-3-yl}-N-[(3R,4S)-4-fluoropiperidin-3-yl]pyrimidine-5-carboxamide, bis(trifluoroacetate) salt]: the “CLint (+/− Std Dev)” value with human hepatocytes is listed as <2.7 +/− 0.72 μL/min/10^6 cells. In addition, in the data set on human liver microsomes, the “CLint (+/− STD Dev)” value is less than 7 µL/min/mg. In data set [1], the “Basic pKa” value was determined as 7.7. Also, the pIC50 against human DGAT2 (hDGAT2) was 8.24.

For the compound `CCOc1cc(F)cnc1Oc1cncc(-c2ncc(C(=O)N[C@@H]3CNC[C@@H](F)C3)cn2)c1` [Example 2, 2-{5-[(3-Ethoxy-5-fluoropyridin-2-yl)oxy]pyridin-3-yl}-N-[(3S,5S)-5-fluoropiperidin-3-yl]pyrimidine-5-carboxamide], the results for the pIC50 (in data set [2]; against human DGAT2 (hDGAT2)) were 8.39 and 8.07, respectively.

Turning to `CCOc1cccnc1Oc1cncc(-c2ncc(C(=O)N[C@@H]3CNCC[C@H]3F)cn2)c1` [Example 5, 2-{5-[(3-Ethoxypyridin-2-yl)oxy]pyridin-3-yl}-N-[(3R,4R)-4-fluoropiperidin-3-yl]pyrimidine-5-carboxamide], the “CLint (+/− STD Dev)” value in the data set with human liver microsomes is less than 7 µL/min/mg. The pIC50 at human DGAT2 (hDGAT2) was 6.96.

In the case of `CCOc1cc(F)cnc1Oc1cncc(-c2ncc(C(=O)N[C@@H]3CNCC[C@H]3F)cn2)c1` [Example 6, 2-{5-[(3-Ethoxy-5-fluoropyridin-2-yl)oxy]pyridin-3-yl}-N-[(3R,4R)-4-fluoropiperidin-3-yl]pyrimidine-5-carboxamide], the pIC50 in data set [2] was 8.62; against human DGAT2 (hDGAT2), 7.10.

Consider `CCOc1cccnc1Oc1cncc(-c2ncc(C(=O)N[C@H]3CNC[C@H](F)C3)cn2)c1` [Example 7, 2-{5-[(3-ethoxypyridin-2-yl)oxy]pyridin-3-yl}-N-[(3R,5R)-5-fluoropiperidin-3-yl]pyrimidine-5-carboxamide, trifluoroacetate salt], for which the pIC50 against human DGAT2 (hDGAT2) is 7.38.

Consider `CCOc1cccnc1Oc1cncc(-c2ncc(C(=O)N[C@H]3CNCC[C@@H]3F)cn2)c1` [Example 12, 2-{5-[(3-ethoxypyridin-2-yl)oxy]pyridin-3-yl}-N-[(3S,4S)-4-fluoropiperidin-3-yl]pyrimidine-5-carboxamide, trifluoroacetate salt], for which, in the data set on human liver microsomes, the “CLint (+/− STD Dev)” value is less than 7 µL/min/mg. Moreover, the pIC50 against human DGAT2 (hDGAT2) was 6.23.

`CCOc1cc(F)cnc1Oc1cncc(-c2ncc(C(=O)N[C@H]3CNCC[C@@H]3F)cn2)c1` [Example 13, 2-{5-[(3-ethoxy-5-fluoropyridin-2-yl)oxy]pyridin-3-yl}-N-[(3S,4S)-4-fluoropiperidin-3-yl]pyrimidine-5-carboxamide, formate salt]: the pIC50 in data set [2] was 8.42; against human DGAT2 (hDGAT2), 7.24.

On human DGAT2 (hDGAT2), `CCOc1cccnc1Oc1cncc(-c2ncc(C(=O)NC3CNCC(F)(F)C3)cn2)c1` (stereo not shown) [Example 17, N-(5,5-difluoropiperidin-3-yl)-2-{5-[(3-ethoxypyridin-2-yl)oxy]pyridin-3-yl}pyrimidine-5-carboxamide] had a pIC50 of 6.64.
